Test systems include SK-MEL-2 melanoma; MCF7 breast; SK-OV-3 ovarian; CCRF-CEM leukemia; RXF 393 renal; OVCAR-4 ovarian; A549 NSCLC; HCT-116 colon; M14 melanoma; SW-620 colon; NCI-H460 lung; RPMI-8226 leukemia; HOP-62 NSCLC; T-47D breast; PC-3 prostate; SR leukemia; NCI-H522 lung.
What all share (experiment): NCI anticancer screen, dose series, 48 h

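1) Cells in 96-well plates. 2) Compound, 48 h, 5 concentrations. 3) Linear interpolation between surrounding doses. 4) Unreached endpoint = highest concentration. The concentration for full growth arrest is given as TGI.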

Take `CC(=O)Oc1c(OC(C)C)c(C)c(O[Si](C(C)C)(C(C)C)C(C)C)c2[nH]c3ccccc3c12`: the TGI in the assay with SK-MEL-2 melanoma, in the assay with MCF7 breast, in the assay with SK-OV-3 ovarian, with CCRF-CEM leukemia, with RXF 393 renal and in the assay on OVCAR-4 ovarian was greater than 100 µM throughout. For the same molecule, the TGI in the assay on A549 NSCLC, with HCT-116 colon, in the assay with M14 melanoma, in the assay on SW-620 colon, in the assay with NCI-H460 lung and in the assay with RPMI-8226 leukemia was greater than 100 µM each time. Further, the TGI in the assay on HOP-62 NSCLC is greater than 100 µM; in the assay on T-47D breast it was greater than 100 µM; with PC-3 prostate it was greater than 100 µM; in the assay on SR leukemia it was 99.3 µM; in the assay with NCI-H522 lung, greater than 100 µM.

On to `COc1cc(C(c2cccc3ccccc23)N2C(=O)CCC2C(=O)O)cc(OC)c1OC` (stereo not given), for which the TGI in the assay with SK-MEL-2 melanoma, with MCF7 breast, in the assay with SK-OV-3 ovarian, with CCRF-CEM leukemia, in the assay with RXF 393 renal and in the assay on OVCAR-4 ovarian was greater than 100 µM each time. The TGI in the assay on A549 NSCLC, with HCT-116 colon, in the assay with M14 melanoma, with SW-620 colon, with NCI-H460 lung and with RPMI-8226 leukemia was greater than 100 µM in each case. Besides, the TGI with HOP-62 NSCLC, with T-47D breast, with PC-3 prostate, in the assay on SR leukemia and with NCI-H522 lung was greater than 100 µM each time.

As to `NC(=O)c1nnsc1NN=O`, the TGI in the assay on SK-MEL-2 melanoma, in the assay with MCF7 breast, with SK-OV-3 ovarian, with CCRF-CEM leukemia, in the assay on RXF 393 renal and in the assay with OVCAR-4 ovarian was greater than 100 µM throughout. Further, the TGI in the assay with A549 NSCLC, with HCT-116 colon, in the assay on M14 melanoma, in the assay with SW-620 colon, in the assay on NCI-H460 lung and in the assay with RPMI-8226 leukemia was greater than 100 µM each time. Moreover, the TGI in the assay on HOP-62 NSCLC, in the assay with T-47D breast, with PC-3 prostate, with SR leukemia and in the assay on NCI-H522 lung was greater than 100 µM each time.

`CC(C)[Si]1(C(C)C)OCC2OC(n3c(C(=O)c4ccccc4)cc(=O)[nH]c3=O)CC2O[Si](C(C)C)(C(C)C)O1` (stereo not given): the TGI turned out to be 10.6 µM in the assay with SK-MEL-2 melanoma; 8.14 µM in the assay with MCF7 breast; 27.2 µM with SK-OV-3 ovarian; 5.12 µM in the assay with CCRF-CEM leukemia; 7.37 µM in the assay on RXF 393 renal; 8.36 µM with OVCAR-4 ovarian. Further, the TGI with A549 NSCLC is 20.5 µM; with HCT-116 colon it was 9.95 µM; in the assay with M14 melanoma, 14.4 µM; with SW-620 colon it was 8.32 µM; in the assay with NCI-H460 lung, 15.9 µM; with RPMI-8226 leukemia it was greater than 23.3 µM. In addition, the TGI in the assay on HOP-62 NSCLC is 21.3 µM; in the assay on T-47D breast, 16 µM; with PC-3 prostate it was 6.22 µM; with SR leukemia, greater than 23.8 µM; in the assay with NCI-H522 lung it was 3.55 µM.

For `CN=C(N)N=Nc1c(O)[nH]c2ccccc12`, the TGI in the assay with SK-MEL-2 melanoma, in the assay on MCF7 breast, in the assay with SK-OV-3 ovarian, with CCRF-CEM leukemia, with RXF 393 renal and with OVCAR-4 ovarian was greater than 100 µM in each case. The TGI in the assay with A549 NSCLC, with HCT-116 colon, in the assay on M14 melanoma, with SW-620 colon, in the assay with NCI-H460 lung and with RPMI-8226 leukemia was greater than 100 µM each time. The TGI in the assay with HOP-62 NSCLC, with T-47D breast, in the assay on PC-3 prostate, with SR leukemia and in the assay on NCI-H522 lung was greater than 100 µM each time.

The values above are taken from PubChem BioAssay (NCI).
